Experimental data as given in patent US20250212892A1, “USE OF THERMALLY HYDROLYZED KERATIN PEPTIDE SOLUTION IN ENHANCING THE YIELD AND QUALITY OF TEA LEAVES” (CH Biotech R&D Co., Ltd., priority 2023, published 2025).

System: tea tree (Camellia Sinesis)
Assay: Spring application (soil infusion, then leaf spray twice): tea shoot production and proportion of terminal facing leaves
Assay type: in vivo
Details: urea 200× dilution
Excerpt: The inventors defined a unit area of 30×30 cm^2 for harvesting tea shoot and measuring weights. The inventors further defined a percentage value of cease-growing bud weight relative to the total bud weight, as indication of the increased tea leaf production without advancing the bud-aging side-effect.
One of the experiments involves first soil infusion application one week after initial harvesting, then leaf-spraying of KHP-1 500× solution twice, first time at the one-bud-with-one-leaf stage and second time at one-bud-with-two-leaf stage. In addition to a CK group, another urea application group of 200× dilution (200 kg of water to 1 kg of urea) is also tabulated. The result is shown in FIG. 1A where the tea shoot's production for the KHP-1 500× group is 32.54 g in a 900 cm^2 harvest area, higher than that of the CK group (20.86 g) and urea group (28.69 g).
This is reflected in FIG. 1B.

In the case of NC(N)=O [urea], the “tea shoot's production” value (900 cm^2 harvest area, FIG. 1A) is reported as 28.69 g and the “proportion of terminal facing leaves” value (FIG. 1B) is reported as 47.4%.
